In patent US20260295053A1, “COMPOUNDS FOR DEGRADATION AND INHIBITION OF KRAS (G12D) PROTEIN” (Shenzhen Ionova Life Science Co., Ltd., priority 2023, published 2026) one finds IC50 and DC50 data, which are given here for eleven compounds.

Test [1] deals with AsPC-1 cells. The test can be described thus: AsPC-1 cell proliferation assay (CellTiter Glo). Format: cell-based. The settings on record: Homo sapiens, ASPC1, 144 h, 6 days. A digest of the protocol: (§1)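 AsPC-1 cells were seeded at 22,000/well for degradation and 3,500/well for proliferation. Compounds in 1:3 dilutions ([…] to 1.5 nM final) ran 24 h for degradation, read by in-cell immunofluorescence of KRAS G12D normalised to β-actin, and 6 days for proliferation (CellTiter Glo luminescence). DC50/IC50 came from dose-response fits.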

For test [2], the target named is T1, KRAS (G12D) (Homo sapiens, UniProt P01116, G12D).
T1 construct: in-cell western with KRAS G12D antibody after 24 h
T1 sequence (P01116 1-188 isoform P01116-2 G12D): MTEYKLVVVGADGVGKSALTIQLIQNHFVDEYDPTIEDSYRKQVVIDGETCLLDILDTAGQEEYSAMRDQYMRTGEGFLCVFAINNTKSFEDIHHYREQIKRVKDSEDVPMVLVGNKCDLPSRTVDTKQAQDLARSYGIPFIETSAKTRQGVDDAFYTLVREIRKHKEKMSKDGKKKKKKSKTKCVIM
The test can be described thus: KRAS (G12D) cellular degradation assay in AsPC-1 cells. It is filed as cell-based. The settings on record: 24 hours, antibody fluorescence (Odyssey CLX), DC50 half-maximal degradation concentration. A digest of the protocol:
as §1

Bounds are passed on as bounds.

One may read the IC50 as the point on the concentration scale where inhibition reaches its midpoint. Higher therefore signals a need for much substance. In general, DC50 refers to the concentration at which degradation of the target reaches its halfway point. Read a high DC50 as degradation only at high concentration. Take `CCn1nccc1-c1ccc([C@H](CO)NC(=O)[C@@H]2C[C@@H](O)CN2C(=O)[C@H](C(C)C)n2cc(-c3ccc(COc4c(-c5c(C)c(F)c(C)c6[nH]ncc56)c(C5CC5)cc5c(N6C[C@@H]7C[C@H]6CN7)nc(OC[C@H](C)OC)nc45)cc3)nn2)cc1` [Example 66, (2S,4R)-1-((2S)-2-(4-(4-(((4-((1S,4S)-2,5-diazabicyclo[2.2.1]heptan-2-yl)-6-cyclopropyl-7-(6-fluoro-5,7-dimethyl-1H-indazol-4-yl)-2-((S)-2-methoxypropoxy)quinazolin-8-yl)oxy)methyl)phenyl)-1H-1,2,3-triazol-1-yl)-3-methylbutanoyl)-N—((R)-1-(4-(1-ethyl-1H-pyrazol-5-yl)phenyl)-2-hydroxyethyl)-4-hydroxypyrrolidine-2-carboxamide]: in test [1], the IC50 was less than 10 nM. Further, in test [2], the DC50 was less than 10 nM.
In test [1], `CO[C@@H](C)COc1nc(N2C[C@@H]3C[C@H]2CN3)c2cc(C3CC3)c(-c3c(C)c(F)cc4[nH]ncc34)c(OCc3ccc(-c4cn([C@H](C(=O)N5C[C@H](O)C[C@H]5C(=O)N[C@H](C#Cc5cc6scnc6s5)CO)C(C)C)nn4)cc3)c2n1` [Example 67, (2S,4R)-1-((2S)-2-(4-(4-(((4-((1S,4S)-2,5-diazabicyclo[2.2.1]heptan-2-yl)-6-cyclopropyl-7-(6-fluoro-5-methyl-1H-indazol-4-yl)-2-((S)-2-methoxypropoxy)quinazolin-8-yl)oxy)methyl)phenyl)-1H-1,2,3-triazol-1-yl)-3-methylbutanoyl)-4-hydroxy-N—((R)-1-hydroxy-4-(thieno[2,3-d]thiazol-5-yl)but-3-yn-2-yl)pyrrolidine-2-carboxamide] had an IC50 of 10 to 100 nM. For the same compound, the DC50 in test [2] lay within 10 to 100 nM.
`CCn1nccc1-c1ccc([C@H](CO)NC(=O)[C@@H]2C[C@@H](O)CN2C(=O)[C@H](C(C)C)n2cc(-c3ccc(COc4c(-c5c(C)c(F)cc6[nH]ncc56)c(C5CCC5)cc5c(N6C[C@@H]7C[C@H]6CN7)nc(OC[C@H](C)OC)nc45)cc3)nn2)cc1` [Example 68, (2S,4R)-1-((2S)-2-(4-(4-(((4-((1S,4S)-2,5-diazabicyclo[2.2.1]heptan-2-yl)-6-cyclobutyl-7-(6-fluoro-5-methyl-1H-indazol-4-yl)-2-((S)-2-methoxypropoxy)quinazolin-8-yl)oxy)methyl)phenyl)-1H-1,2,3-triazol-1-yl)-3-methylbutanoyl)-N—((R)-1-(4-(1-ethyl-1H-pyrazol-5-yl)phenyl)-2-hydroxyethyl)-4-hydroxypyrrolidine-2-carboxamide]: the IC50 in test [1] was less than 10 nM. This compound also yielded a DC50 in test [2] of less than 10 nM.
In turn, `CCn1nccc1-c1ccc([C@H](CO)NC(=O)[C@@H]2C[C@@H](O)CN2C(=O)[C@H](C(C)C)n2cc(-c3ccc(COc4c(-c5c(C)c(F)cc6[nH]ncc56)c(C5CC5)cc5c(N6C[C@@H]7C[C@H]6CN7)nc(OC6CC7(COC7)C6)nc45)cc3)nn2)cc1` [Example 69, (2S,4R)-1-((2S)-2-(4-(4-(((2-((2-oxaspiro[3.3]heptan-6-yl)oxy)-4-((1S,4S)-2,5-diazabicyclo[2.2.1]heptan-2-yl)-6-cyclopropyl-7-(6-fluoro-5-methyl-1H-indazol-4-yl)quinazolin-8-yl)oxy)methyl)phenyl)-1H-1,2,3-triazol-1-yl)-3-methylbutanoyl)-N—((R)-1-(4-(1-ethyl-1H-pyrazol-5-yl)phenyl)-2-hydroxyethyl)-4-hydroxypyrrolidine-2-carboxamide] registered an IC50 in test [1] of less than 10 nM. Further, in test [2], the DC50 was less than 10 nM.
In test [1], `CCn1nccc1-c1ccc([C@H](CO)NC(=O)[C@@H]2C[C@@H](O)CN2C(=O)[C@H](C(C)C)n2cc(-c3ccc(COc4c(-c5c(C)c(F)cc6[nH]ncc56)c(C5CC5)cc5c(N6C[C@@H]7C[C@H]6CN7)nc(OC6CCC(OC)CC6)nc45)cc3)nn2)cc1` (stereo partly drawn) [Example 70, (2S,4R)-1-((2S)-2-(4-(4-(((4-((1S,4S)-2,5-diazabicyclo[2.2.1]heptan-2-yl)-6-cyclopropyl-7-(6-fluoro-5-methyl-1H-indazol-4-yl)-2-((4-methoxycyclohexyl)oxy)quinazolin-8-yl)oxy)methyl)phenyl)-1H-1,2,3-triazol-1-yl)-3-methylbutanoyl)-N—((R)-1-(4-(1-ethyl-1H-pyrazol-5-yl)phenyl)-2-hydroxyethyl)-4-hydroxypyrrolidine-2-carboxamide] registered an IC50 of less than 10 nM. This compound also showed a DC50 in test [2] of less than 10 nM.
Consider `CO[C@@H](C)COc1nc(N2C[C@@H]3C[C@H]2CN3)c2cc(C3CC3)c(-c3c(C)c(F)cc4[nH]ncc34)c(OCc3ccc(-c4cn([C@H](C(=O)N5C[C@H](O)C[C@H]5C(=O)N[C@H](C#Cc5nn(C)c6ccccc56)CO)C(C)C)nn4)cc3)c2n1` [Example 71, (2S,4R)-1-((2S)-2-(4-(4-(((4-((1S,4S)-2,5-diazabicyclo[2.2.1]heptan-2-yl)-6-cyclopropyl-7-(6-fluoro-5-methyl-1H-indazol-4-yl)-2-((S)-2-methoxypropoxy)quinazolin-8-yl)oxy)methyl)phenyl)-1H-1,2,3-triazol-1-yl)-3-methylbutanoyl)-4-hydroxy-N—((R)-1-hydroxy-4-(1-methyl-1H-indazol-3-yl)but-3-yn-2-yl)pyrrolidine-2-carboxamide], for which, in test [1], the IC50 is less than 10 nM. Also, the DC50 in test [2] is less than 10 nM.
For `Cc1ncsc1-c1ccc([C@@H](NC(=O)[C@@H]2C[C@@H](O)CN2C(=O)[C@H](C(C)C)n2cc(-c3ccc(COc4c(-c5c(C)c(F)cc6[nH]ncc56)c(C5CC5)cc5c(N6C[C@@H]7C[C@H]6CN7)nc(OC6CCOCC6)nc45)cc3)nn2)[C@H](C)O)cc1` [Example 72, (2S,4R)-1-((2S)-2-(4-(4-(((4-((1S,4S)-2,5-diazabicyclo[2.2.1]heptan-2-yl)-6-cyclopropyl-7-(6-fluoro-5-methyl-1H-indazol-4-yl)-2-((tetrahydro-2H-pyran-4-yl)oxy)quinazolin-8-yl)oxy)methyl)phenyl)-1H-1,2,3-triazol-1-yl)-3-methylbutanoyl)-4-hydroxy-N-((1R,2S)-2-hydroxy-1-(4-(4-methylthiazol-5-yl)phenyl)propyl)pyrrolidine-2-carboxamide], the IC50 in test [1] is less than 10 nM. The DC50 in test [2] was less than 10 nM.
`CCn1nccc1-c1ccc([C@@H](NC(=O)[C@@H]2C[C@@H](O)CN2C(=O)[C@H](C(C)C)n2cc(-c3ccc(COc4c(-c5c(C)c(F)cc6[nH]ncc56)c(C5CC5)cc5c(N6C[C@@H]7C[C@H]6CN7)nc(OC[C@H](C)OC)nc45)cc3)nn2)[C@@H](C)O)cc1` [Example 73, (2S,4R)-1-((2S)-2-(4-(4-(((4-((1S,4S)-2,5-diazabicyclo[2.2.1]heptan-2-yl)-6-cyclopropyl-7-(6-fluoro-5-methyl-1H-indazol-4-yl)-2-((S)-2-methoxypropoxy)quinazolin-8-yl)oxy)methyl)phenyl)-1H-1,2,3-triazol-1-yl)-3-methylbutanoyl)-N-((1R,2R)-1-(4-(1-ethyl-1H-pyrazol-5-yl)phenyl)-2-hydroxypropyl)-4-hydroxypyrrolidine-2-carboxamide] had an IC50 in test [1] of less than 10 nM. This compound came in with a DC50 in test [2] of less than 10 nM.
For `CCn1nccc1-c1ccc([C@H](CO)NC(=O)[C@@H]2C[C@@H](O)CN2C(=O)[C@H](C(C)C)n2cc(-c3ccc(COc4c(-c5c(C)c(F)cc6[nH]ncc56)c(C5CC5)cc5c(N6C[C@@H]7C[C@H]6CN7)nc(O[C@H]6C[C@H](OC)C6)nc45)cc3)nn2)cc1` [Example 74, (2S,4R)-1-((2S)-2-(4-(4-(((4-((1S,4S)-2,5-diazabicyclo[2.2.1]heptan-2-yl)-6-cyclopropyl-7-(6-fluoro-5-methyl-1H-indazol-4-yl)-2-((1r,3S)-3-methoxycyclobutoxy)quinazolin-8-yl)oxy)methyl)phenyl)-1H-1,2,3-triazol-1-yl)-3-methylbutanoyl)-N—((R)-1-(4-(1-ethyl-1H-pyrazol-5-yl)phenyl)-2-hydroxyethyl)-4-hydroxypyrrolidine-2-carboxamide], the IC50 in test [1] is less than 10 nM. In test [2], the DC50 is less than 10 nM.
Compound `Cc1ncsc1-c1ccc([C@H](CO)NC(=O)[C@@H]2C[C@@H](O)CN2C(=O)[C@H](C(C)C)n2cc(-c3ccc(COc4c(-c5c(C)c(F)c(F)c6[nH]ncc56)c(C5CC5)cc5c(N6C[C@@H]7C[C@H]6CN7)nc(OC6CCOCC6)nc45)cc3)nn2)cc1` [Example 76, (2S,4R)-1-((2S)-2-(4-(4-(((4-((1S,4S)-2,5-diazabicyclo[2.2.1]heptan-2-yl)-6-cyclopropyl-7-(6,7-difluoro-5-methyl-1H-indazol-4-yl)-2-((tetrahydro-2H-pyran-4-yl)oxy)quinazolin-8-yl)oxy)methyl)phenyl)-1H-1,2,3-triazol-1-yl)-3-methylbutanoyl)-4-hydroxy-N—((R)-2-hydroxy-1-(4-(4-methylthiazol-5-yl)phenyl)ethyl)pyrrolidine-2-carboxamide] registered an IC50 in test [1] of less than 10 nM. Besides, the DC50 in test [2] was less than 10 nM.
`CO[C@@H](C)COc1nc(N2C[C@@H]3C[C@H]2CN3)c2cc(C3CC3)c(-c3c(C)c(F)cc4[nH]ncc34)c(OCc3ccc(-c4cn([C@H](C(=O)N5C[C@H](O)C[C@H]5C(=O)N[C@H](C#Cc5cccc(F)c5)CO)C(C)C)nn4)cc3)c2n1` [Example 77, (2S,4R)-1-((2S)-2-(4-(4-(((4-((1S,4S)-2,5-diazabicyclo[2.2.1]heptan-2-yl)-6-cyclopropyl-7-(6-fluoro-5-methyl-1H-indazol-4-yl)-2-((S)-2-methoxypropoxy)quinazolin-8-yl)oxy)methyl)phenyl)-1H-1,2,3-triazol-1-yl)-3-methylbutanoyl)-N—((R)-4-(3-fluorophenyl)-1-hydroxybut-3-yn-2-yl)-4-hydroxypyrrolidine-2-carboxamide]: in test [1], the IC50 was less than 10 nM. Also, the DC50 in test [2] is less than 10 nM.
